Measurements reported in ChEMBL document CHEMBL5724558, “Image-based profiling of drug vulnerabilities in CRC organoids” (2024).
“And” between values parts separate entries of the source, which are not always exact repeats. Identical values can stand only once.

Experiments:
Format in all cases: functional, Homo sapiens
Design in all cases: dose or concentration left out as unconfirmed
Colon cancer organoid [1] = assay: Image-based profiling of donated chemical probes and chemogenomic kinase set in O09 CRC organoid. Image analysis is performed on the sum area metric, and the data were normalized to the DMSO control. After imaging the organoid viability is measured using the OneGloEX Luciferase Assay System. The normalized viability data and sum area are reported.
Colon cancer organoid [2] = assay: Image-based profiling of donated chemical probes and chemogenomic kinase set in O06 CRC organoid. Image analysis is performed on the sum area metric, and the data were normalized to the DMSO control. After imaging the organoid viability is measured using the OneGloEX Luciferase Assay System. The normalized viability data and sum area are reported.
Colon cancer organoid [3] = assay: Image-based profiling of donated chemical probes and chemogenomic kinase set in O21 CRC organoid. Image analysis is performed on the sum area metric, and the data were normalized to the DMSO control. After imaging the organoid viability is measured using the OneGloEX Luciferase Assay System. The normalized viability data and sum area are reported.

| SMILES | Cell Viability (Colon cancer organoid [1]; Replication number 1) | Cell Viability (Colon cancer organoid [1]; Replication number 2) | Cell Viability (Colon cancer organoid [2]; Replication number 1) | Cell Viability (Colon cancer organoid [2]; Replication number 2) | Cell Viability (Colon cancer organoid [3]; Replication number 1) | Cell Viability (Colon cancer organoid [3]; Replication number 2) |
| --- | --- | --- | --- | --- | --- | --- |
| Cc1ccc(-c2ccc3c(ccc4sc5c(c43)NC[C@@H](C)NC5=O)n2)cn1 | 114.172% and 105.969% | 99.6709% and 79.9055% | 131.751% and 124.635% | 132.52% and 124.216% | 108.383% and 98.1185% | 106.246% and 104.786% |
| Cc1nc(NC(=O)N2CCC[C@H]2C(N)=O)sc1-c1ccnc(C(C)(C)C(F)(F)F)c1 [ALPELISIB] | 78.5129% and 75.0506% | 83.7581% and 44.8119% | 55.6533% and 63.4302% | 57.1927% and 78.1491% | 82.706% and 92.5436% | 73.0527% and 85.7863% |
| CN1C(=O)c2sccc2N(C)c2nc(Nc3ccc(S(N)(=O)=O)cc3)ncc21 | 28.4515% and 23.8118% | 41.5113% and 34.0138% | 15.9976% and 28.488% | 18.284% and 43.3933% | 57.1917% and 77.4913% | 65.5582% and 80.0288% |
| O=c1nc(-c2ccccn2)sc2ccccc12 [BTZO-1] | 107.798% and 116.353% | 106.736% and 92.2965% | 100.751% and 107.26% | 110.744% and 103.05% | 137.995% and 94.89% | 98.0739% and 81.1225% |
| CC(=O)Nc1ncc(CN2CCC[C@H](Cc3cc(C)nc(C)c3)C2)s1 [JNJ-65355394] | 144.44% and 104.679% | 146.748% and 114.826% | 89.0088% and 111.578% | 103.026% and 113.793% | 79.2381% and 103.709% | 88.6271% and 113.344% |
| COCc1nc2cnc3cc(-c4c(C)noc4C)c(OC[C@H]4CCNC4)cc3c2n1[C@H](C)c1ccccc1 [GSK778] | 36.9836% and 58.5219% | 32.5027% and 49.1673% | 42.5585% and 78.7045% | 45.6544% and 89.6204% | 115.801% and 111.859% | 99.2147% and 116.757% |
| Cn1nc(C(=O)NCc2ccc(C(=O)O)cc2)cc1-c1ccc2[nH]ccc2c1 [BI 4395] | 118.116% and 98.6727% | 113.973% and 124.717% | 93.2096% and 84.0749% | 51.0154% and 42.4045% | 90.5249% and 84.9935% | 78.9736% and 83.6735% |
| Cc1ccc2nc(CNCCCOc3ccccc3)cc(O)c2c1 [UCSF924] | 89.1468% and 105.602% | 80.3683% and 95.5591% | 116.607% and 123.644% | 89.7333% and 84.3345% | 109.248% and 108.585% | 100.134% and 96.363% |
| O=C(c1ccc(F)c(F)c1Nc1ccc(I)cc1F)N1CC(O)([C@@H]2CCCCN2)C1 [COBIMETINIB] | 5.994% and 14.4616% |  | 2.921% and 4.652% | 3.136% and 6.437% | 18.944% and 20.5157% | 17.3316% and 26.4843% |
| CCOc1cn(-c2ccc(F)cc2C)nc1C(=O)Nc1ccc(Oc2ccnc3cc(OC)c(OC)cc23)c(F)c1 | 106.171% and 88.0162% and 65.7353% and 75.3% | 96.6425% [middle of 4 runs] | 102.988% and 123.299% and 120.024% and 109.723% | 127.856% and 122.776% and 99.2168% and 90.0771% | 103.157% and 102.021% and 78.4654% and 79.1638% | 106.966% and 96.7254% and 100.887% and 106.513% |
| Clc1cccc(-c2nnnn2Cc2cccnc2)c1Cl | 192.597% and 128.776% | 120.929% and 99.0142% | 110.934% and 130.913% | 90.04% and 81.9662% | 103.002% and 95.4722% | 106.874% and 109.184% |
